Read-outs that look alike come from different tables or passages of the source.
Assays:
[1] = test system: zebra mussels (Dreissena polymorpha)
[2] = mixed with paint applied to a surface or applied as a dust; cited from earlier work
[3] = test system: Daphnia magna (water flea); assay: non-target organism screening, Daphnia cumulative mortality; type: in vivo; conditions: for lethal effect / toxicity towards non-target (Daphnia) organism: at a dose that totally prevents fouling by mussels; for toxicity to other non-target organisms (water fleas, Daphnia magna): summary statement
Experimental: Those compounds that were determined to be highly efficacious zebra mussel antifoulants with little or no toxicity were additionally assessed for toxicity in another non-target aquatic species. The freshwater cladoceran crustacean Daphnia magna (water flea) is commonly utilized for aquatic toxicity testing (Suedel et al., 1997), with 10,583 tests of toxic end points being reported for this species on the USEPA ECOTOX web site. Three replicates of 20 adult specimens of D. magna were exposed to each compound employing a dose range that was the same or greater than that used in zebra mussel antifouling studies. The conditions for toxicity testing of water fleas were the same as those used for testing zebra mussel antifouling and toxicity (i.e., polypropylene containers at 15° C.), except that test medium volume was 40 ml and exposure was increased to three days. Dead individuals were removed every 24 h and the total number of surviving individuals was recorded at the end of 1, 2, and 3 days. Although the level of Daphnia mortality was too low in most cases, when it was high enough to be reliably estimated then the Daphnia lethal dose values (i.e., LD50) were estimated using the same methods employed in the mussel byssal attachment studies. Uniformity of test organisms was maintained by establishing a laboratory D. magna culture with specimens initially purchased from a biological supply company.

zebra mussel = conditions: controlled laboratory setting; cited from earlier work
[4] = target: vanilloid receptor 1 (VR1) receptor (Homo sapiens, UniProt Q8NER1); conditions: cited from earlier work
vanilloid receptor 1 (VR1) receptor, sequence (Q8NER1 whole entry, species assumed): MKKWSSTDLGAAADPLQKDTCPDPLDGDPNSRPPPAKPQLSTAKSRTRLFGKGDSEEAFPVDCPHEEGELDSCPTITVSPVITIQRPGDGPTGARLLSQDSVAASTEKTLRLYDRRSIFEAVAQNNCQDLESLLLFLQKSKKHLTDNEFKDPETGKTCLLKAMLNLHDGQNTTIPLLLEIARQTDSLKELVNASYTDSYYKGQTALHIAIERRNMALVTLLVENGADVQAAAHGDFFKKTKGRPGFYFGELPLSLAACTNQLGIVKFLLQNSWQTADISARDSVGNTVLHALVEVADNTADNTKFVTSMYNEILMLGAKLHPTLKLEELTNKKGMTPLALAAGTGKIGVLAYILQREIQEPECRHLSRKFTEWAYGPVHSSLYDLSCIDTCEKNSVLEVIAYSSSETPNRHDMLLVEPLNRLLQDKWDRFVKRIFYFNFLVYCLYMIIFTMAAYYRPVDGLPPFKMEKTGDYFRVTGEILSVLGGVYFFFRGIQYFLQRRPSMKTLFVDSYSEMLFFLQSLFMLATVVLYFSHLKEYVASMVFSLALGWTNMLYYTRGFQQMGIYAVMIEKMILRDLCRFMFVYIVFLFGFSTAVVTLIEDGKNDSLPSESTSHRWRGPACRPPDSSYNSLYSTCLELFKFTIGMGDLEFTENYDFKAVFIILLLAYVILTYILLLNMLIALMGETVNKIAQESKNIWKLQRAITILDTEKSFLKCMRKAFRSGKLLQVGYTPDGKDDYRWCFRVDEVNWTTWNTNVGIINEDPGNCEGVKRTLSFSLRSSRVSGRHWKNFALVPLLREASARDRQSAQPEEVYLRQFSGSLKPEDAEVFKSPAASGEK

[5] = single high concentration (e.g., 30 μM), 48 h, FIG. 4 and FIG. 6
[6] = single high concentration (e.g., 30 μM), second 48 h post-exposure / both periods

SMILES | residual effect to the target organism ([1]; in vivo) | zebra mussel antifouling efficacy ([1]; in vivo) | lethal effect / toxicity towards non-target (Daphnia) organism [3] | antifouling efficacy (fraction of unattached mussels during the first 48 h) ([1]; in vivo) | target organism residual effects ("toxicity") or lethality ([1]; in vivo) | further results
COc1cc(CNC(=O)CCCC/C=C/C(C)C)ccc1O (racemic) [capsaicin, reference compound] | little residual effect | efficacious | no toxicity | – | – | toxicity to the target organism (zebra mussels) ([1]; in vivo): reduced toxicity; antifouling effectiveness compared with copper [2]: not as effective as copper; toxicity to other non-target organisms (water fleas, Daphnia magna) [3]: reduced toxicity; zebra mussel antifoulant effect (zebra mussel): effective
COc1ccc(C(=O)c2c(C)n(CCN3CCOCC3)c3cc(I)ccc23)cc1 [AM630] | some residual effect | efficacious | no significant lethality | efficacious | minimal | dose that totally prevents fouling by mussels ([1]; in vivo): 4 µM
CCCCCCC(C)(C)c1ccc([C@@H]2C[C@H](O)CC[C@@H]2CCCO)c(O)c1 [CP55,940] | – | – | – | – | – | antifouling efficacy (fraction of unattached mussels during the first 48 h) [1, 5]: efficacious; target organism residual effects ("toxicity") or lethality [1, 6]: minimal
CCCCC/C=C\C/C=C\CCCCCCCC(=O)NCCO [Linoleyl ethanolamide] | – | – | – | efficacious | minimal | –
CCCCCCCCCC(=O)NC(CC)CO (centres unmarked) [N-(1-(hydroxymethyl)propyl)decanamide] | – | – | – | efficacious | minimal | –
CCCCCCCCCCCC(=O)NCC(=O)NN=Cc1ccc(OC)c(OC)c1 [N-(2-(2-(3,4-dimethoxybenzylidene)hydrazine)-2-oxoethyl)dodecanamide] | – | – | – | efficacious | minimal | –
CC1=CC[C@H]2[C@@H](C1)c1c(O)cc(CC#CCCCNS(C)(=O)=O)cc1OC2(C)C [O-2050] | – | efficacious | no lethal effect | efficacious | minimal | residual effect at a dose that totally prevents biofouling ([1]; 6 μM): no residual effect; antifouling potency ([1]; in vivo): higher potency; dose that totally prevents fouling by mussels ([1]; in vivo): 6 µM
CCCCC/C=C\C/C=C\C/C=C\C/C=C\CCCC(=O)NCCO [anandamide] | no residual effect | efficacious | no lethal effect | efficacious | minimal | dose that totally prevents fouling by mussels ([1]; in vivo): 15 µM; toxicity to the target organism (zebra mussels) ([1]; in vivo): reduced toxicity; toxicity to other non-target organisms (water fleas, Daphnia magna) [3]: reduced toxicity
COc1cc(CNC(=O)CCCC/C=C/C(C)C)ccc1O [compound 28, 8-methyl-N-vanillyl-trans-6-nonenamide] | – | – | – | efficacious | minimal | toxicity of the stereoisomer towards the non-target (Daphnia) organism ([3]; inferred from the result for racemic capsaicin): neither stereoisomer (E or Z) is toxic
COc1cc(CNC(=O)CCCC/C=C\C(C)C)ccc1O [compound 29] | – | – | – | efficacious | minimal | attachment of zebra mussels to aquatic striatum ([1]; in vivo): prevents the attachment; toxicity to the target organism ([1]; in vivo): non-toxic; action on the vanilloid receptor 1 (VR1) receptor [4]: does not act on
CCCCC/C=C\C/C=C\C/C=C\C/C=C\CCCCOC(CO)CO [noladin ether] | – | – | – | – | – | antifouling efficacy (fraction of unattached mussels during the first 48 h) [1, 5]: efficacious; target organism residual effects ("toxicity") or lethality [1, 6]: minimal
CCCCCCCCC(=O)NCc1ccc(O)c(OC)c1 [pseudocapsaicin, N-vanillylnonanamide] | little residual effect | efficacious | not lethal | – | – | antifouling ([1]; 20 μM): 100%; antifouling ([1]; 30 μM): 100%; toxicity to the target organism (zebra mussels) ([1]; in vivo): reduced toxicity; Daphnia toxicity over controls ([3]; 72 h exposure, 20 and 30 μM): no measurable toxicity over controls; lethal effect / toxicity towards non-target (Daphnia) organism ([3]; listed as N-vanillylnonanamide): no significant toxicity; Daphnia mortality ([3]; highest test dose (60 μM), 72 h time point): Statistically significant Daphnia mortality; toxicity to other non-target organisms (water fleas, Daphnia magna) [3]: reduced toxicity
